According to ChEMBL document CHEMBL5055624, “Structural Determinants for the Mode of Action of Imidazopyridine DS2 at δ-Containing γ-Aminobutyric Acid Type A Receptors” (J Med Chem, 2021):
pEC50: −log10 of the molar value. Each block holds one compound with its values, some of them ahead of it.

Experiments:
[1] = biological target: Gamma-aminobutyric acid receptor subunit alpha-4/beta-1/delta (Homo sapiens, UniProt O14764+P18505+P48169); assay: Positive allosteric modulation of human recombinant alpha4beta1delta GABAA receptor expressed in delta-HEK cells assessed as potentiation of GABA-induced response in presence of GABA EC20 by FMP assay; type: cell-based, HEK293
Gamma-aminobutyric acid receptor subunit alpha-4/beta-1/delta, sequence (P48169 whole entry): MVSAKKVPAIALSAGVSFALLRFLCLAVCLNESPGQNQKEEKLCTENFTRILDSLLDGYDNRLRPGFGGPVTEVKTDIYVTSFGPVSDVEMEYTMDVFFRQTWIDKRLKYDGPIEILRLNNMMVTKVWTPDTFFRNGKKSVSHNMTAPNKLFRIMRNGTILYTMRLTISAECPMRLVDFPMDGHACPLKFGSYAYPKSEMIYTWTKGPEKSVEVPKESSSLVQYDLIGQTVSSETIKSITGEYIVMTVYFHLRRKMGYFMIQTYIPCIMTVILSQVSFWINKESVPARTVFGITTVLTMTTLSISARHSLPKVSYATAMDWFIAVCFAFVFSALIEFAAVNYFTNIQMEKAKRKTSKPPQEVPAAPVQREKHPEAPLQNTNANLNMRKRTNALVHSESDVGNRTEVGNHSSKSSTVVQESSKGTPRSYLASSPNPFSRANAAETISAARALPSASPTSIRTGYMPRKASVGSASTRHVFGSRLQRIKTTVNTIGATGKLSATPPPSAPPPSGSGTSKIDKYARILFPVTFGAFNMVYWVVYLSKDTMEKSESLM
Gamma-aminobutyric acid receptor subunit alpha-4/beta-1/delta, sequence (O14764 whole entry): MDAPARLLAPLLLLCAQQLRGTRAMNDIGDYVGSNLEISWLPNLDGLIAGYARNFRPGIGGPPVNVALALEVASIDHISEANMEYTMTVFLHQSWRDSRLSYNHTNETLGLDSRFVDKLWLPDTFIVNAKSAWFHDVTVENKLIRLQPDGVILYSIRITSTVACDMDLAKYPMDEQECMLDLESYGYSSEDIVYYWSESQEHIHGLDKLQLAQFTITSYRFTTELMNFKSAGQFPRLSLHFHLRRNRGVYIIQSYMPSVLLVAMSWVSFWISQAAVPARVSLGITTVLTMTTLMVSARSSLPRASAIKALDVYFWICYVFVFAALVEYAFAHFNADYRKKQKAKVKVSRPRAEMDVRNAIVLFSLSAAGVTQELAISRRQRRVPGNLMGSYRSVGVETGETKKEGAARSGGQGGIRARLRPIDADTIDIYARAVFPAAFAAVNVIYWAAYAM
Gamma-aminobutyric acid receptor subunit alpha-4/beta-1/delta, sequence (P18505 whole entry): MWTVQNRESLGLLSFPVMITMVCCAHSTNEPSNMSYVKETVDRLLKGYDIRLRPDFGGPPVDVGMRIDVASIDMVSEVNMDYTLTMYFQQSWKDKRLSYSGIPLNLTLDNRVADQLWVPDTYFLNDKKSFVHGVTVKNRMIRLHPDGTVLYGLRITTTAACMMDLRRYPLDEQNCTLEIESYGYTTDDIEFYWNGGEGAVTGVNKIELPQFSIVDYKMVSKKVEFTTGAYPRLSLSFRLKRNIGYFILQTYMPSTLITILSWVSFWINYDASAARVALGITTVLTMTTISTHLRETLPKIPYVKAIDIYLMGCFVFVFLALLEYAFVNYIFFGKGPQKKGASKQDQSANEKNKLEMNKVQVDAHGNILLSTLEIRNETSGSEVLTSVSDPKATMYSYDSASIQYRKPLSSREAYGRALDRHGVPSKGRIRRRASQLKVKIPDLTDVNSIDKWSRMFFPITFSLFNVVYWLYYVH

[2] = test system: GABAA receptor alpha4beta1delta (Homo sapiens); assay: Positive allosteric modulation of human recombinant alpha4beta1delta GABAA receptor expressed in HEK293 cells assessed as GABA-induced response in presence of GABA EC20 by FMP assay
[3] = Solubility of compound; type: physicochemical

SMILES: O=C(Nc1c(-c2cccs2)nc2ccc(F)cn12)c1ccc(Cl)cc1
pEC50 [1]: 5.72 | pEC50 [2]: 5.72

SMILES: Cc1ccc2nc(-c3cccs3)c(NC(=O)c3ccc(Cl)cc3)n2c1
pEC50 [1]: 6.80 | pEC50 [2]: 6.79

SMILES: Clc1ccc(-c2noc(-c3c(-c4ccccc4)nc4ccccn34)n2)cc1
solubility [3]: Insoluble

SMILES: O=C(Nc1c(-c2cccs2)nc2ccc(C(F)(F)F)cn12)c1ccc(Cl)cc1
pEC50 [1]: 5.96 | pEC50 [2]: 5.96

More lines, in order of rising pEC50 [1], values ahead:

pEC50 [1]: 6.01 | pEC50 [2]: 6.01
SMILES: O=C(Nc1c(-c2cccs2)nc2ccccn12)c1ccc(Cl)cc1

pEC50 [1]: 6.85 | pEC50 [2]: 6.84
SMILES: O=C(Nc1c(-c2cccs2)nc2ccc(Cl)cn12)c1ccc(Cl)cc1

pEC50 [1]: 7.22 | pEC50 [2]: 7.22
SMILES: O=C(Nc1c(-c2cccs2)nc2ccc(Br)cn12)c1ccc(Cl)cc1
